Measured values: patent EP4741380A1, “ISOXAZOLINE COMPOUND AND USE” (priority 2024, dated 2025)
Where two headings read alike, the source gives them in different places.

Test system: mites
Assay: Mite killing efficacy test with an in vitro model
Conditions: 30 µM drug solution
Experimental: Mite collection: Live mites were gently picked up from a cage box with cotton swabs or small tweezers, 17-26 live mites per group.
Drug treatment and detection method: 100 µL of a drug solution with a different concentration (drug solution prepared by 3% DMSO solution + 97% water and having a target final concentration of 30 µM) was aspirated with a pipette and added to a 24-well plate for each group, ensuring full contact between the drug and the mites. The mites were separately incubated at normal temperature for 5 min, transferred from each plate to another dry 24-well plate with the top sealed, and air-dried for about 1 h. Mite actions were observed, and the number of dead mites/the total number of mites was recorded. Then, the 24-well plate containing the mites was cultured at room temperature and relatively high humidity. The number of dead mites/the total number of mites was counted separately after 1 h, 2 h, 4 h, 6 h, 8 h, 22 h, and 24 h (time points after drug addition), and mite mortality rates were calculated. The project ended 24 h after drug addition.
At a corresponding time point, a mite mortality rate greater than or equal to 90% is denoted as "+++", a mite mortality rate less than 90% and greater than or equal to 50% is denoted as "++", and a mite mortality rate less than 50% is denoted as "+".

[1] = 4 h after drug addition, read-out: Mite Mortality Rate 4 h
[2] = 24 h after drug addition, read-out: Mite Mortality Rate 24 h

SMILES	mortality at 30 µM [1] [%]	mortality at 30 µM [2] [%]	Mite Mortality Rate 4 h (4 h after drug addition)	Mite Mortality Rate 24 h (24 h after drug addition)
Cc1cc(C2=NOC(c3cc(Cl)cc(Cl)c3)(C(F)(F)F)C2)ccc1C(=O)NCC(=O)N1CC(F)(C(F)(F)F)C1 (stereo not shown) [Example 025, 4-(5-(3,5-dichlorophenyl)-5-(trifluoromethyl)-4,5-dihydroisoxazol-3-yl)-N-(2-(3-fluoro-3-(trifluoromethyl)azetidin-1-yl)-2-oxoethyl)-2-methylbenzamide]	< 50	< 50	–	–
Cc1cc(C2=NOC(c3cc(Cl)cc(Cl)c3)(C(F)(F)F)C2)ccc1C(=O)NCC(=O)N1CC(F)(CF)C1 (stereo not shown) [Example 026, 4-(5-(3,5-dichlorophenyl)-5-(trifluoromethyl)-4,5-dihydroisoxazol-3-yl)-N-(2-(3-fluoro-3-(fluoromethyl)azetidin-1-yl)-2-oxoethyl)-2-methylbenzamide]	50 to 90	> 90	–	–
Cc1cc(C2=NOC(c3cc(F)cc(Cl)c3)(C(F)(F)F)C2)ccc1C(=O)NCC(=O)NC1(C(F)(F)F)CC1 (stereo not shown) [Example 027, 4-(5-(3-chloro-5-fluorophenyl)-5-(trifluoromethyl)-4,5-dihydroisoxazol-3-yl)-2-methyl-N-(2-oxo-2-((1-(trifluoromethyl)cyclopropyl)amino)ethyl)benzamide]	50 to 90	> 90	–	–
Cc1cc(C2=NOC(c3cc(F)c(Cl)c(Cl)c3)(C(F)(F)F)C2)ccc1C(=O)NCC(=O)NC1(C(F)(F)F)CC1 (stereo not shown) [Example 028, 4-(5-(3,4-dichloro-5-fluorophenyl)-5-(trifluoromethyl)-4,5-dihydroisoxazol-3-yl)-2-methyl-N-(2-oxo-2-((1-(trifluoromethyl)cyclopropyl)amino)ethyl)benzamide]	50 to 90	> 90	–	–
Cc1cc(C2=NOC(c3cc(F)cc(C(F)(F)F)c3)(C(F)(F)F)C2)ccc1C(=O)NCC(=O)NC1(C(F)(F)F)CC1 (stereo not shown) [Example 031, 4-(5-(3-fluoro-5-(trifluoromethyl)phenyl)-5-(trifluoromethyl)-4,5-dihydroisoxazol-3-yl)-2-methy 1-N-(2-oxo-2-((1-(trifluoromethyl)cyclopropyl)amino)ethyl)benzamide]	–	–	+++ (a mite mortality rate greater than or equal to 90% is denoted as "+++")	+++ (a mite mortality rate greater than or equal to 90% is denoted as "+++")
Cc1cc(Cl)cc(C2(C(F)(F)F)CC(c3ccc(C(=O)NCC(=O)NC4(C(F)(F)F)CC4)c(C)c3)=NO2)c1 (stereo not shown) [Example 032, 4-(5-(3-chloro-5-methylphenyl)-5-(trifluoromethyl)-4,5-dihydroisoxazol-3-yl)-2-methyl-N-(2-oxo-2-((1-(trifluoromethyl)cyclopropyl)amino)ethyl)benzamide]	< 50	> 90	–	–
COc1cc(Cl)cc(C2(C(F)(F)F)CC(c3ccc(C(=O)NCC(=O)NC4(C(F)(F)F)CC4)c(C)c3)=NO2)c1 (stereo not shown) [Example 033, 4-(5-(3-chloro-5-methoxyphenyl)-5-(trifluoromethyl)-4,5-dihydroisoxazol-3-yl)-2-methyl-N-(2-oxo-2-((1-(trifluoromethyl)cyclopropyl)amino)ethyl)benzamide]	< 50	> 90	–	–
Cc1cc(C2=NOC(c3cc(Cl)cc(Cl)c3)(C(F)(F)F)C2)ccc1C(=O)N(C)CC(=O)NC1(C(F)(F)F)CC1 (stereo not shown) [Example 034, 4-(5-(3,5-dichlorophenyl)-5-(trifluoromethyl)-4,5-dihydroisoxazol-3-yl)-N,2-dimethyl-N-(2-oxo-2-((1-(trifluoromethyl)cyclopropyl)amino)ethyl)benzamide]	< 50	> 90	–	–
Cc1cc(C2=NOC(c3cc(Cl)cc(Cl)c3)(C(F)(F)F)C2)ccc1C(=O)N[C@H](C)C(=O)NC1(C(F)(F)F)CC1 (stereo partly drawn) [Example 035, 4-(5-(3,5-dichlorophenyl)-5-(trifluoromethyl)-4,5-dihydroisoxazol-3-yl)-2-methyl-N-((R)-1-oxo-1-((1-(trifluoromethyl)cyclopropyl)amino)propan-2-yl)benzamide]	< 50	50 to 90	–	–
Cc1cc(C2=NOC(c3cc(Cl)cc(Cl)c3)(C(F)(F)F)C2)ccc1C(=O)N[C@@H](C)C(=O)NC1(C(F)(F)F)CC1 (stereo partly drawn) [Example 036, 4-(5-(3,5-dichlorophenyl)-5-(trifluoromethyl)-4,5-dihydroisoxazol-3-yl)-2-methyl-N-((S)-1-oxo-1-((1-(trifluoromethyl)cyclopropyl)amino)propan-2-yl)benzamide]	< 50	< 50	–	–
Cc1cc(C2=NOC(c3cc(Cl)cc(OC(F)(F)F)c3)(C(F)(F)F)C2)ccc1C(=O)NCC(=O)NC1(C(F)(F)F)CC1 (stereo not shown) [Example 037, 4-(5-(3-chloro-5-(trifluoromethoxy)phenyl)-5-(trifluoromethyl)-4,5-dihydroisoxazol-3-yl)-2-met hyl-N-(2-oxo-2-((1-(trifluoromethyl)cyclopropyl)amino)ethyl)benzamide]	50 to 90	> 90	–	–
O=C(CNC(=O)c1ccc(C2=NOC(c3cc(Cl)cc(Cl)c3)(C(F)(F)F)C2)cc1)NC1(C(F)(F)F)CC1 (stereo not shown) [Example 038, 4-(5-(3,5-dichlorophenyl)-5-(trifluoromethyl)-4,5-dihydroisoxazol-3-yl)-N-(2-oxo-2-((1-(trifluor omethyl)cyclopropyl)amino)ethyl)benzamide]	< 50	> 90	–	–
Cc1cc(C2=NOC(c3cc(Cl)cc(Cl)c3)(C(F)(F)F)C2)cc(Cl)c1C(=O)NCC(=O)NC1CC1 (stereo not shown) [Example 040, 2-chloro-N-(2-(cyclopropylamino)-2-oxoethyl)-4-(5-(3,5-dichlorophenyl)-5-(trifluoromethyl)-4,5-dihydroisoxazol-3-yl)-6-methylbenzamide]	< 50	< 50	–	–
Cc1cc(C2=NOC(c3cc(Cl)cc(Cl)c3)(C(F)(F)F)C2)c(F)cc1C(=O)NCC(=O)NC1CC1 (stereo not shown) [Example 041, N-(2-(cyclopropylamino)-2-oxoethyl)-4-(5-(3,5-dichlorophenyl)-5-(trifluoromethyl)-4,5-dihydroisoxazol-3-yl)-5-fluoro-2-methylbenzamide]	> 90	> 90	–	–
Cc1cc(C2=NOC(c3cc(Cl)cc(Cl)c3)(C(F)(F)F)C2)c(F)cc1C(=O)NCC(=O)NCC(F)(F)F (stereo not shown) [Example 042]	–	–	+++ (a mite mortality rate greater than or equal to 90% is denoted as "+++")	+++ (a mite mortality rate greater than or equal to 90% is denoted as "+++")
Cc1c(C(=O)NCC(=O)NC2CC2)ccc(C2=NOC(c3cc(Cl)cc(Cl)c3)(C(F)(F)F)C2)c1F (stereo not shown) [Example 043, N-(2-(cyclopropylamino)-2-oxoethyl)-4-(5-(3,5-dichlorophenyl)-5-(trifluoromethyl)-4,5-dihydroisoxazol-3-yl)-3-fluoro-2-methylbenzamide]	< 50	50 to 90	–	–
Cc1c(C(=O)NCC(=O)NCC(F)(F)F)ccc(C2=NOC(c3cc(Cl)cc(Cl)c3)(C(F)(F)F)C2)c1F (stereo not shown) [Example 044]	–	–	+++ (a mite mortality rate greater than or equal to 90% is denoted as "+++")	+++ (a mite mortality rate greater than or equal to 90% is denoted as "+++")
